{
  "source": "patent US11584727B2",
  "about": "“2-thioxothiazolidin-4-one derivatives active as transthyretin ligands and uses thereof” (BSIM Therapeutics, S.A., priority 2014, dated 2023)",
  "key": {"[1]": {"target": "Val122Ile transthyretin (V122I-TTR) (Homo sapiens, UniProt P02766, V142I)", "assay": "V122I-TTR amyloid fibril formation assay (turbidimetry, acid-induced)", "assay_type": "biochemical", "settings": "pH 4.4, 72 hours; for Fibril Formation (%): V122I-TTR 3.6 μM, 37° C."}, "[2]": {"target": "T1, wild type transthyretin (WT-TTR) (Homo sapiens, UniProt P02766)", "T1 construct": "made in house; host or cells: E. coli BL21 (DE3), pET23a plasmid", "assay": "WT-TTR amyloid fibril formation assay (turbidimetry, acid-induced)", "assay_type": "biochemical", "settings": "for Fibril Formation (%): WT-TTR 3.6 μM, 1:1 TTR-compound stoichiometry, 37° C., normalized to no-compound control (100%)"}},
  "data": [
    {"smiles": "COc1cc(/C=C2\\SC(=S)N(CC(=O)O)C2=O)cc(Cl)c1O", "note": "[AT50-A00 (Z), (Z)-3-hydroxycarbonylmethyl-5-(3′-chloro-4′-hydroxy-5′-methoxyphenylmethylidene)-2-thioxothiazolidin-4-one]", "values": [
      {"measurement": "Fibril Formation (%)", "setting": "[1]", "result": 52, "unit": "%"},
      {"measurement": "IC50", "setting": "[1]; V122I-TTR fixed at 3.6 μM, ten compound concentrations", "result": 3730, "unit": "nM"},
      {"measurement": "inhibition of fibril formation", "setting": "[2]; 1:2 compound-protein stoichiometry (0.5×), TTR 3.6 μM", "result": "above 70%"},
      {"measurement": "inhibitory activity against TTR amyloid fibril formation compared with reference compounds (in words)", "setting": "[2]; TTR 3.6 μM, pH 4.4, 72 hours", "result": "superior to that of reference compounds Tafamidis"},
      {"measurement": "Fibril Formation (%)", "setting": "[2]; pH 4.4, 72 hours", "result": 28, "unit": "%"},
      {"measurement": "IC50", "setting": "[2]; WT-TTR fixed at 3.6 μM, ten compound concentrations, pH 4.4, 72 hours", "result": "1770 ± 240", "unit": "nM"}
    ]},
    {"smiles": "O=C(O)c1ccc2nc(-c3cc(Cl)cc(Cl)c3)oc2c1", "note": "[Tafamidis, reference compound]", "values": [
      {"measurement": "Fibril Formation (%)", "setting": "[1]", "result": 49, "unit": "%"},
      {"measurement": "Fibril Formation (%)", "setting": "[2]; pH 4.4, 72 hours", "result": 43, "unit": "%"}
    ]}
  ]
}
